Earlier results, collected in patent US9974861B2, “Peptide slow-release formulations” (CAMURUS AB, priority 2007, dated 2018).

## C[C@@H](O)[C@@H]1NC(=O)[C@H](CCCCN)NC(=O)[C@@H](Cc2c[nH]c3ccccc23)NC(=O)[C@H](Cc2ccccc2)NC(=O)[C@@H](NC(=O)[C@H](N)Cc2ccccc2)CSSC[C@@H](C(=O)N[C@H](CO)[C@@H](C)O)NC1=O [Octreotide, D-Phe-Cys-Phe-D-Trp-Lys-Thr-Cys-Thr-ol (2-7 disulphide bridge)]
In vivo
  Terminal half-life: around 1.7 hours
SSTRs (SSTR1-SSTR5)
  Selectivity for SSTR2 and SSTR5: high selectivity

## Ala-Gly-Cys-Lys-Asn-Phe-Phe-Trp-Lys-Thr-Phe-Thr-Ser-Cys [SST-14]
Natural hormone
  Biological half-life: 1-3 minutes
SSTRs (SSTR1-SSTR5); five known types of SSTRs
  Affinity of SSTR1-SSTR5: equally high affinity
